Experimental data: ChEMBL document CHEMBL1151362, “Catharanthus alkaloids. XXXIV. Catharanthamine, a new antitumor bisindole alkaloid from Catharanthus roseus” (1981)
Activity calls are given as the source filed them. The rule behind the calls is not given here.

Key:
KB = assay: Cytotoxicity against human KB cells; format: functional, cell-based
P388 = assay: In vivo antitumor activity against mouse P388 cells at 1 mg/kg relative to control; format: functional

Structure (SMILES): CC[C@]12C[C@H]3CN(CCc4c([nH]c5ccccc45)[C@@](C(=O)OC)(c4cc5c(cc4OC)N(C)[C@H]4[C@@](O)(C(=O)OC)[C@H](OC(C)=O)[C@]6(CC)C=CCN7CC[C@]54[C@@H]76)[C@@H]3O1)C2 [CATHARANTHAMINE]
- Activity (KB): Active
- T/C (P388): 176%
